# From US9796700B2 (Celgene CAR LLC, priority 2013, dated 2017)
# Target: Erk1 (Homo sapiens (Human), UniProt P27361)
# Experiment: Protein Mass Modification Assay (intact protein MALDI)
# Assay type: binding
# Experimental: Protein Mass Modification Assay
# Intact protein: Erk1 from Millipore (Cat. No. 14-439) was incubated for 60 min. at room temperature with a 10-fold excess of test compound to protein. 4 μL aliquots of the resulting mixture were diluted with 15 μL of 0.2% TFA prior to micro C4 ZipTipping directly onto the MALDI target using sinapinic acid as the desorption matrix (10 mg/ml in 0.1% TFA:Acetonitrile 50:50, v/v). The centroid mass of the target protein in the control sample was compared with the centroid mass of the target protein incubated with compound. A shift in the centroid mass of the treated protein compared to the untreated protein was divided by the molecular weight of the compound. This number corresponds to the percentage of modified protein after one hour incubation. Results from this assay are reported in Table A under the column “ERK1 Mass Mod (%).”
# Sequence of Erk1 (P27361 whole entry, looked up): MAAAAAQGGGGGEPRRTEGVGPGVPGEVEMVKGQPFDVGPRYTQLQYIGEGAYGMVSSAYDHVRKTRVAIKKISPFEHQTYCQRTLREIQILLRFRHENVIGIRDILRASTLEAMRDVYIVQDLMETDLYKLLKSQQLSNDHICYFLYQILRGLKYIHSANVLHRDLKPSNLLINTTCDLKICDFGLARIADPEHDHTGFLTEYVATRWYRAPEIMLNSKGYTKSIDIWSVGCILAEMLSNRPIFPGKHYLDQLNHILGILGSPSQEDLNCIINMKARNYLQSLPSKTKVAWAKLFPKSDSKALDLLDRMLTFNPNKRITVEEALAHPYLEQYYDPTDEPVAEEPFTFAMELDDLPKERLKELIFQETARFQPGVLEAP
row,SMILES,ERK1 Mass Mod (%)
1,"C=CC(=O)N[C@@H]1CCCC[C@H]1Oc1nc(Nc2cc(C(=O)NOC)ccc2C)ncc1C(N)=O (racemic) [Compound I-269, Rac-trans-4-((2-acrylamidocyclohexyl)oxy)-2-((5-(methoxycarbamoyl)-2-methylphenyl)amino)pyrimidine-5-carboxamide]",G (proived a mass modification ≦30%)
2,"C=CC(=O)Nc1ccccc1Nc1nc(N[C@@H]2CCC[C@H](C(=O)NOCCO)C2)ncc1C(F)(F)F (racemic) [Compound I-4, Rac-cis-3-((4-((2-acrylamidophenyl)amino)-5-(trifluoromethyl)pyrimidin-2-yl)amino)-N-(2-hydroxyethoxy)cyclohexanecarboxamide]",F (provided a mass modification of 31-69%)
3,"C=CC(=O)N(C)c1ccccc1Nc1nc(N[C@@H]2CCC[C@H](C(=O)NOC)C2)ncc1Cl (racemic) [Compound I-106, Rac-cis-3-((5-chloro-4-((2-(N-methylacrylamido)phenyl)amino)pyrimidin-2-yl)amino)-N-methoxycyclohexanecarboxamide]",F (provided a mass modification of 31-69%)
4,"C#CC(=O)N[C@@H]1CCCC[C@H]1Nc1nc(N[C@H]2CCCN(C(=O)CO)C2)ncc1C(F)(F)F [Compound I-34, N-((1R,2R)-2-((2-(((S)-1-(2-Hydroxyacetyl)piperidin-3-yl)amino)-5-(trifluoromethyl)pyrimidin-4-yl)amino)cyclohexyl)propiolamide]",F (provided a mass modification of 31-69%)
5,"C=CC(=O)Nc1ccccc1Nc1nc(N[C@H]2CCCN(C(=O)[C@H](C)O)C2)ncc1Cl [Compound I-138, N-(2-((5-chloro-2-(((S)-1-((S)-2-hydroxypropanoyl)piperidin-3-yl)amino)pyrimidin-4-yl)amino)phenyl)acrylamide]",E (provided a mass modification of ≧70%)
6,"C=CC(=O)Nc1ccccc1Nc1nc(Nc2ccc(N(CCNC(=O)OC(C)(C)C)C(C)=O)cc2OC)ncc1Cl [Compound I-174, tert-butyl (2-(N-(4-((4-((2-acrylamidophenyl)amino)-5-chloropyrimidin-2-yl)amino)-3-methoxyphenyl)acetamido)ethyl)carbamate]",E (key: E: provided a mass modification of ≧70%; F: provided a mass modification of 31-69%; G: proived a mass modification ≦30%)
7,"C=CC(=O)Nc1ccccc1Nc1nc(Nc2ccc(N3CCOCC3)cc2OC)ncc1C#N [Compound I-143, N-(2-((5-cyano-2-((2-methoxy-4-morpholinophenyl)amino)pyrimidin-4-yl)amino)phenyl)acrylamide]",F (provided a mass modification of 31-69%)
8,"C=CC(=O)Nc1ccccc1Nc1nc(N[C@H]2CCN(C(=O)CO)C2)ncc1C(F)(F)F [Compound I-57, (S)—N-(2-((2-((1-(2-Hydroxyacetyl)pyrrolidin-3-yl)amino)-5-(trifluoromethyl)pyrimidin-4-yl)amino)phenyl)acrylamide]",F (provided a mass modification of 31-69%)
9,"C=CC(=O)Nc1cc(C)ccc1Nc1nc(Nc2cc(OC)nc(N3CCN(CC)CC3)c2)ncc1C(F)(F)F [Compound I-89, N-(2-((2-((2-(4-Ethylpiperazin-1-yl)-6-methoxypyridin-4-yl)amino)-5-(trifluoromethyl)pyrimidin-4-yl)amino)-5-methylphenyl)acrylamide]",F (provided a mass modification of 31-69%)
10,"C=CC(=O)Nc1ccccc1Nc1nc(N[C@H]2CCCN(C(=O)C(C)(C)O)C2)ncc1Cl [Compound I-135, (S)—N-(2-((5-chloro-2-((1-(2-hydroxy-2-methylpropanoyl)piperidin-3-yl)amino)pyrimidin-4-yl)amino)phenyl)acrylamide]",E (provided a mass modification of ≧70%)
11,"C=CC(=O)Nc1ccccc1Oc1nc(Nc2ccc(N3CCC[C@@H]3CO)cc2OC)ncc1C(N)=O [Compound I-263, (R)-4-(2-acrylamidophenoxy)-2-((4-(2-(hydroxymethyl)pyrrolidin-1-yl)-2-methoxyphenyl)amino)pyrimidine-5-carboxamide]",E (provided a mass modification of ≧70%)
12,"C=CC(=O)Nc1cc(C)ccc1Nc1nc(Nc2ccnc(OC)c2)ncc1Cl [Compound I-235, N-(2-((5-chloro-2-((2-methoxypyridin-4-yl)amino)pyrimidin-4-yl)amino)-5-methylphenyl)acrylamide]",E (provided a mass modification of ≧70%)
13,"C=CC(=O)Nc1ccccc1Nc1nc(Nc2ccc(F)cc2OC)ncc1Cl [Compound I-210, N-(2-((5-chloro-2-((4-fluoro-2-methoxyphenyl)amino)pyrimidin-4-yl)amino)phenyl)acrylamide]",F (provided a mass modification of 31-69%)
14,"C=CC(=O)N(C)c1ccccc1Nc1nc(N[C@@H]2CCC[C@H](C(N)=O)C2)ncc1Cl (racemic) [Compound I-105, Rac-cis-3-((5-chloro-4-((2-(N-methylacrylamido)phenyl)amino)pyrimidin-2-yl)amino)cyclohexanecarboxamide]",F (provided a mass modification of 31-69%)
15,"C=CC(=O)Nc1ccccc1Nc1nc(Nc2ccc(N3CCOCC3)cc2OC)ncc1C(=O)NC [Compound I-250, 4-(2-acrylamidophenylamino)-2-(2-methoxy-4-morpholinophenylamino)-N-methylpyrimidine-5-carboxamide]",G (proived a mass modification ≦30%)
16,"C=CC(=O)Nc1ccccc1Nc1nc(Nc2ccc3c(c2OC)CCCC(=O)N3CCN2CCOCC2)ncc1Cl [Compound I-145, N-(2-((5-chloro-2-((6-methoxy-1-(2-morpholinoethyl)-2-oxo-2,3,4,5-tetrahydro-1H-benzo[b]azepin-7-yl)amino)pyrimidin-4-yl)amino)phenyl)acrylamide]",E (provided a mass modification of ≧70%)
17,"C=CC(=O)Nc1ccccc1Nc1nc(Nc2cc(Cl)nc(OC)c2)ncc1Cl [Compound I-246, N-(2-((5-chloro-2-((2-chloro-6-methoxypyridin-4-yl)amino)pyrimidin-4-yl)amino)phenyl)acrylamide]",E (provided a mass modification of ≧70%)
18,"C=CC(=O)Nc1ccccc1Nc1nc(Nc2cc(C(=O)NOCCO)ccc2C#N)ncc1Cl [Compound I-202, 3-((4-((2-acrylamidophenyl)amino)-5-chloropyrimidin-2-yl)amino)-4-cyano-N-(2-hydroxyethoxy)benzamide]",F (key: E: provided a mass modification of ≧70%; F: provided a mass modification of 31-69%; G: proived a mass modification ≦30%)
19,"C=CC(=O)Nc1ccccc1Nc1nc(N[C@@H]2CCC[C@H](C(=O)O)C2)ncc1C(F)(F)F (racemic) [Compound I-14, Rac-3-((4-((2-acrylamidophenyl)amino)-5-(trifluoromethyl)pyrimidin-2-yl)amino)-cis-cyclohexanecarboxylic acid]",E (provided a mass modification of ≧70%)
20,"C=CC(=O)Nc1ccccc1Nc1nc(Nc2cc(NC(=O)CCCC(=O)NCCCOCCOCCOCCCNC(=O)CCCC[C@@H]3SC[C@@H]4NC(=O)N[C@@H]43)cc(C(N)=O)c2)ncc1Cl [Compound I-304, N^1-(3-((4-((2-acrylamidophenyl)amino)-5-chloropyrimidin-2-yl)amino)-5-carbamoylphenyl)-N-(15-oxo-19-((3aS,4S,6aR)-2-oxohexahydro-1H-thieno[3,4-d]imidazol-4-yl)-4,7,10-trioxa-14-azanonadecyl)glutaramide]",G (proived a mass modification ≦30%)
21,"CC(=O)N1CCC[C@H](Nc2ncc(C(F)(F)F)c(Nc3ccccc3NC(=O)CCl)n2)C1 [Compound I-30, (S)—N-(2-((2-((1-Acetylpiperidin-3-yl)amino)-5-(trifluoromethyl)pyrimidin-4-yl)amino)phenyl)-2-chloroacetamide]",G (proived a mass modification ≦30%)
22,"C=CC(=O)Nc1ccccc1Nc1nc(Nc2ccc(F)cc2C)ncc1Cl [Compound I-209, N-(2-((5-chloro-2-((4-fluoro-2-methylphenyl)amino)pyrimidin-4-yl)amino)phenyl)acrylamide]",F (provided a mass modification of 31-69%)
23,"C=CC(=O)Nc1ccccc1Nc1nc(N[C@H]2CCN(S(C)(=O)=O)C2)ncc1C(F)(F)F [Compound I-58, (S)—N-(2-((2-((1-(Methylsulfonyl)pyrrolidin-3-yl)amino)-5-(trifluoromethyl)pyrimidin-4-yl)amino)phenyl)acrylamide]",E (provided a mass modification of ≧70%)
24,"C=CC(=O)Nc1cc(OC)ccc1Nc1nc(Nc2cc(Cl)nc(OC)c2)ncc1Cl [Compound I-245, N-(2-((5-chloro-2-((2-chloro-6-methoxypyridin-4-yl)amino)pyrimidin-4-yl)amino)-5-methoxyphenyl)acrylamide]",F (provided a mass modification of 31-69%)
25,"C=CC(=O)Nc1ccccc1Nc1nc(Nc2cc(C(=O)NOC)ccc2C#N)ncc1Cl [Compound I-195, 3-((4-((2-acrylamidophenyl)amino)-5-chloropyrimidin-2-yl)amino)-4-cyano-N-methoxybenzamide]",E (provided a mass modification of ≧70%)
26,"C=CC(=O)Nc1ccccc1Nc1nc(Nc2ccc(NC(=O)COC(C)=O)cc2OC)ncc1Cl [Compound I-183, 2-((4-((4-((2-acrylamidophenyl)amino)-5-chloropyrimidin-2-yl)amino)-3-methoxyphenyl)amino)-2-oxoethyl acetate]",E (provided a mass modification of ≧70%)
27,"C=CC(=O)Nc1cc(OC)ccc1Nc1nc(Nc2ccc(N3CCC[C@H]3C(N)=O)cc2C#N)ncc1Cl [Compound I-178, (S)-1-(4-((4-((2-acrylamido-4-methoxyphenyl)amino)-5-chloropyrimidin-2-yl)amino)-3-cyanophenyl)pyrrolidine-2-carboxamide]",E (provided a mass modification of ≧70%)
